Test results published in patent publication US10271552B2, “Heterocyclic compounds as pesticides” (Bayer CropScience Aktiengesellschaft, priority 2015, dated 2019).

Experiments:
Type in all cases: in vivo
Boophilus microplus = Boophilus microplus injection test; details: 20 μg/animal injected; adult engorged female ticks; after 7 days
Procedure: Boophilus microplus—Injection Test
(§1) Solvent: dimethyl sulfoxide
To produce a suitable preparation of active compound, 10 mg of active compound are dissolved in 0.5 ml solvent, and the concentrate is diluted with solvent to the desired concentration.
Five adult engorged female ticks (Boophilus microplus) are injected with 1 μl compound solution into the abdomen. The ticks are transferred into replica plates and incubated in a climate chamber.
After 7 days egg deposition of fertile eggs is monitored. Eggs where fertility is not visible are stored in a climate chamber till hatching after about 42 days. An efficacy of 100% means all eggs are infertile; 0% means all eggs are fertile.

Ctenocephalides felis [1] = experiment: whole plant or invertebrate; details: po, 48 h
Procedure: Ctenocephalides felis—Oral Test
as §1
To produce a suitable preparation of active compound, 10 mg of active compound are dissolved in 0.5 ml solvent, and the concentrate is diluted with cattle blood to the desired concentration.
Approximately 20 adult unfed cat fleas (Ctenocephalides felis) are placed in flea chambers. The blood chamber, sealed with parafilm on the bottom, are filled with cattle blood supplied with compound solution and placed on the gauze covered top of the flea chamber, so that the fleas are able to suck the blood. The blood chamber is heated to 37° C. whereas the flea chamber is kept at room temperature.
After 2 days mortality in % is determined. 100% means all the fleas have been killed; 0% means none of the fleas have been killed.

Lucilia cuprina = experiment: whole plant or invertebrate; details: 48 h
Procedure: as §1
10 mg active compound are dissolved in 0.5 ml Dimethylsulfoxid. Serial dilutions are made to obtain the desired rates.
Approximately 20 1st instar larvae of the Australian sheep blowfly (Lucilia cuprina) are transferred into a test tube containing minced horse meat and compound solution of the desired concentration.
After 2 days mortality in % is determined. 100% means all the larvae have been killed; 0% means none of the larvae have been killed.

Diabrotica balteata = Diabrotica balteata spray test; details: 160 μg/well; germinated wheat seeds, larvae; after 7 days
Procedure: Diabrotica Balteata—Spray Test
(§2) Solvent: 78.0 parts by weight of acetone • • 1.5 parts by weight of dimethylformamide
(§3) Emulsifier: alkylarylpolyglycol ether
(§4) To produce a suitable preparation of active compound, 1 part by weight of active compound is mixed with the stated amount of solvent, and the concentrate is diluted with water, containing an emulsifier concentration of 1000 ppm, to the desired concentration. Further test concentrations are prepared by dilution with emulsifier containing water.
Soaked wheat seeds (Triticum aestivum) are placed in a multiple well plate filled with agar and some water and are incubated for 1 day to germinate (5 seeds per well). The germinated wheat seeds are sprayed with a test solution containing the desired concentration of the active ingredient. Afterwards each unit is infected with 10-20 larvae of the banded cucumber beetle (Diabrotica balteata).
After 7 days efficacy in % is determined. 100% means all the seedlings have grown up like in the untreated, uninfected control; 0% means none of the seedlings have grown.

Meloidogyne incognita = Meloidogyne incognita test; details: 20 ppm; eggs and larvae, salad seeds in sand; after 14 days
Procedure: Meloidogyne incognita—Test
Solvent: 125.0 parts by weight of acetone
To produce a suitable preparation of active compound, 1 part by weight of active compound is mixed with the stated amount of solvent, and the concentrate is diluted with water to the desired concentration.
Vessels are filled with sand, a solution of the active ingredient, a suspension containing eggs and larvae of the southern root-knot nematode (Meloidogyne incognita) and salad seeds. The salad seeds germinate and the seedlings grow. Galls develop in the roots.
After 14 days the nematicidal activity is determined on the basis of the percentage of gall formation. 100% means no galls were found and 0% means the number of galls found on the roots of the treated plants was equal to that in untreated control plants.

Myzus persicae = Myzus persicae spray test; details: foliar, Chinese cabbage leaf disks, all instars, after 5-6 days
Procedure: Myzus persicae—Spray Test
(§5) Solvent: 78.0 parts by weight acetone • 1.5 parts by weight dimethylformamide
as §3
as §4, with “solvents” for “solvent,”, “and” for “and the concentrate”
Chinese cabbage (Brassica pekinensis) leaf disks infected with all instars of the green peach aphid (Myzus persicae), are sprayed with a preparation of the active ingredient of the desired concentration.
After 5-6 days mortality in % is determined. 100% means all aphids have been killed and 0% means none of the aphids have been killed.

Nezara viridula [2] = experiment: Nezara viridula spray test (solvent 78.0 acetone / 1.5 dimethylformamide); details: 96 h, barley plants, larvae, after 4 days
Procedure: (§6) Nezara viridula—Spray Test
as §2, §3, §4
(§7) Barley plants (Hordeum vulgare) infested with larvae of the southern green stink bug (Nezara viridula) are sprayed with a test solution containing the desired concentration of the active ingredient.
(§8) After 4 days mortality in % is determined. 100% means all the stink bugs have been killed; 0% means none of the stink bugs have been killed.

Nilaparvata lugens [3] = experiment: Nilaparvata lugens spray test (solvent 78.0 acetone / 1.5 dimethylformamide); details: 96 h, rice plants, after 4 days
Procedure: (§9) Nilaparvata lugens—Spray Test
as §2, §3
as §4, with “solvents” for “solvent,”, “and” for “and the concentrate”
Rice plants (Oryza sativa) are sprayed with a preparation of the active ingredient of the desired concentration and the plants are infested with the brown planthopper (Nilaparvata lugens).
(§10) After 4 days mortality in % is determined. 100% means all planthoppers have been killed and 0% means none of the planthoppers have been killed.

Phaedon cochleariae = Phaedon cochleariae spray test; details: foliar, 168 h, Chinese cabbage leaf disks, larvae, after 7 days
Procedure: Phaedon cochleariae—Spray Test
as §2, §3
as §4, with “solvents” for “solvent,”, “and” for “and the concentrate”
Chinese cabbage (Brassica pekinensis) leaf disks are sprayed with a preparation of the active ingredient of the desired concentration. Once dry, the leaf disks are infested with mustard beetle larvae (Phaedon cochleariae).
After 7 days mortality in % is determined. 100% means all beetle larvae have been killed and 0% means none of the beetle larvae have been killed.

Tetranychus urticae = Tetranychus urticae spray test OP-resistant; details: foliar, 144 h, French bean leaf disks, all instars, after 6 days
Procedure: Tetranychus urticae—Spray Test OP-Resistant
as §5, §3
as §4, with “solvents” for “solvent,”, “and” for “and the concentrate”
French bean (Phaseolus vulgaris) leaf disks infected with all instars of the two spotted spidermite (Tetranychus urticae), are sprayed with a preparation of the active ingredient of the desired concentration.
After 6 days mortality in % is determined. 100% means all spider mites have been killed and 0% means none of the spider mites have been killed.

Nezara viridula [4] = experiment: Nezara viridula spray test (solvent 52.5 acetone / 7 dimethylformamide); details: 96 h, barley plants, larvae, after 4 days
Procedure: as §6
(§11) Solvent: 52.5 parts by weight of acetone • 7 parts by weight of dimethylformamide
(§12) Emulsifier: alkylaryl polyglycolether
(§13) To produce a suitable preparation of active compound, 1 part by weight of active compound is mixed with the stated amount of solvent, and the concentrate is diluted with water, containing an emulsifier concentration of 1000 ppm, to the desired concentration. Ammonium salt and/or penetration enhancer in a dosage of 1000 ppm are added to the desired concentration if necessary.
as §7, §8

Nilaparvata lugens [5] = experiment: Nilaparvata lugens spray test (solvent 52.5 acetone / 7 dimethylformamide); details: 96 h, rice plants, larvae, after 4 days
Procedure: as §9, §11, §12
as §13, with “solvents” for “solvent,”, “and” for “and the concentrate”, “concentration. Further test concentrations are prepared by dilution with emulsifier containing water.” for “concentration.”
Rice plants (Oryza sativa) are treated by being sprayed with the desired concentration of the active compound and are infested with larvae of the brown planthopper (Nilaparvata lugens).
as §10

Ctenocephalides felis [6] = experiment: Ctenocephalides felis in-vitro contact test, adult cat flea; details: 5 μg/cm^2 (=500 g/ha), after 48 hours
Procedure: Ctenocephalides felis—In-Vitro Contact Tests Adult Cat Flea
9 mg compound is solved in 1 ml acetone and diluted with acetone to the desired concentration. 250 μl of the test solution is filled in 25 ml glass test tubes and homogeneously distributed on the inner walls by rotation and tilting on a shaking device (2 h at 30 rpm). With a compound concentration of 900 ppm, an inner surface of 44.7 cm^2 and a homogeneous distribution, a dose of 5 μg/cm^2 is achieved.
After the solvent has evaporated, each test tube is filled with 5-10 adult cat fleas (Ctenocephalides felis), closed with a perforated lid and incubated in a lying position at room temperature and relative humidity. After 48 hours efficacy is determined. The fleas are patted on the ground of the tubes and are incubated on a heating plate at 45-50° C. for at most 5 minutes. Immotile or uncoordinated moving fleas, which are not able to escape the heat by climbing upwards, are marked as dead or moribund.
An efficacy of 100% means all fleas are dead or moribund; 0% means no fleas are dead or moribund.

Musca domestica = Musca domestica test; details: Musca domestica, 48 h
Procedure: as §1
To produce a suitable preparation of active compound, 10 mg of active compound are dissolved in 0.5 ml solvent, and the concentrate is diluted with water to the desired concentration.
10 adult house flies (Musca domestica) are transferred into a container, containing a sponge soaked with a mixture of sugar solution and compound solution of the desired concentration.
After 2 days mortality in % is determined. 100% means all the flies have been killed; 0% means none of the flies have been killed.

Spodoptera frugiperda = Spodoptera frugiperda spray test; details: 168 h, maize leaf sections, larvae, after 7 days
Procedure: Spodontera frugiperda—Spray Test
as §5, §3
as §4, with “solvents” for “solvent,”, “and” for “and the concentrate”
Maize (Zea mays) leaf sections are sprayed with a preparation of the active ingredient of the desired concentration. Once dry, the leaf sections are infested with fall armyworm larvae (Spodoptera frugiperda).
After 7 days mortality in % is determined. 100% means all caterpillars have been killed and 0% means none of the caterpillars have been killed.

Row | Structure (SMILES) | efficacy (infertile eggs) (Boophilus microplus) [%] | mortality at 100 ppm (Ctenocephalides felis [1]) [%] | mortality at 100 ppm (Lucilia cuprina) [%] | efficacy (seedling growth) (Diabrotica balteata) [%] | nematicidal activity (gall formation) (Meloidogyne incognita) [%] | mortality at 500 g/ha (Myzus persicae) [%] | mortality at 500 g/ha (Nezara viridula [2]) [%] | mortality at 500 g/ha (Nilaparvata lugens [3]) [%] | mortality at 500 g/ha (Phaedon cochleariae) [%] | mortality at 500 g/ha (Tetranychus urticae) [%] | mortality at 500 g/ha (Nezara viridula [4]) [%] | mortality at 500 g/ha (Nilaparvata lugens [5]) [%] | efficacy (fleas dead or moribund) (Ctenocephalides felis [6]) [%] | mortality at 100 ppm (Musca domestica) [%] | mortality at 500 g/ha (Spodoptera frugiperda) [%]
1 | O=C(Nc1nc(-c2ccccc2C(F)(F)F)ns1)c1cccnc1C(F)(F)F [Compound I-1-20, 2-(trifluoromethyl)-N-{3-[2-(trifluoromethyl)phenyl]-1,2,4-thiadiazol-5-yl}nicotinamide] | 100 | 100 | 100 | 100 | 100 | ≥ 70 | ≥ 90 | ≥ 70 | ≥ 80 | ≥ 70 | ≥ 90 | ≥ 80 |  |  | 
2 | O=C(c1cccnc1C(F)(F)F)N(C(=O)c1cccnc1C(F)(F)F)c1nc(-c2c(F)cccc2F)ns1 [Compound I-1-31, N-[3-(2,6-Difluorophenyl)-1,2,4-thiadiazol-5-yl]-2-(trifluoromethyl)-N-{[2-(trifluoromethyl)pyridin-3-yl]carbonyl}nicotinamide] | 100 | 100 | 100 |  |  |  |  |  | ≥ 80 | ≥ 70 | ≥ 90 |  | 100 | 80 | 
3 | O=C(Nc1nc(-c2ccccc2OC(F)(F)F)ns1)c1cccnc1C(F)(F)F [Compound I-1-55, N-{3-[2-(Trifluoromethoxy)phenyl]-1,2,4-thiadiazol-5-yl}-2-(trifluoromethyl)nicotinamide] | 100 | 100 | 100 | 100 |  | ≥ 70 | ≥ 90 |  | ≥ 80 | ≥ 70 | ≥ 90 |  |  |  | ≥ 80
4 | O=C(Nc1nc(-c2cccc(C(F)(F)F)c2Cl)ns1)c1cccnc1C(F)(F)F [Compound I-1-62, N-{3-[2-Chloro-3-(trifluoromethyl)phenyl]-1,2,4-thiadiazol-5-yl}-2-(trifluoromethyl)nicotinamide] |  |  |  |  |  | ≥ 70 | ≥ 90 |  | ≥ 80 | ≥ 70 | ≥ 90 | ≥ 80 |  |  | ≥ 80
